The source made the active and inactive calls. The rule behind the calls is not given here.
Columns and labels:
Mus musculus [1] = assay: Antifibrotic activity in C57BL/6 mouse model of bleomycin-induced lung fibrosis assessed as reduction in alpha smooth muscle actin level in lung at 60 mg/kg, po pre-treated 1 hr to 1 day before bleomycin injection and measured after 14 to 28 days by immunohistochemistry analysis; assay type: functional, organism-based
Mus musculus [2] = assay: Antifibrotic activity in C57BL/6 mouse model of bleomycin-induced lung fibrosis assessed as reduction in cross linked collagen level in lung at 60 mg/kg, po pre-treated 1 hr to 1 day before bleomycin injection and measured after 14 to 28 days by Masson's trichrome staining based assay; assay type: functional, organism-based
Mus musculus [3] = assay: Antifibrotic activity in C57BL/6 mouse model of bleomycin-induced lung fibrosis assessed as reduction in cross linked collagen level in lung at 60 mg/kg, po pre-treated 1 hr to 1 day before bleomycin injection and measured after 14 to 28 days by Picro-Sirius staining based assay; assay type: functional, organism-based
Mus musculus [4] = assay: Antifibrotic activity in C57BL/6 mouse model of bleomycin-induced lung fibrosis assessed as reduction in hydroxyproline in lung homogenates at 60 mg/kg, po pre-treated 1 hr to 1 day before bleomycin injection and measured after 14 to 28 days by chloramine T and Erlich's solution based assay; assay type: functional, organism-based
Mus musculus [5] = assay: Antifibrotic activity in C57BL/6 mouse model of bleomycin-induced lung fibrosis assessed as reduction in collagen level in lung at 60 mg/kg, po pre-treated 1 hr to 1 day before bleomycin injection and measured after 14 to 28 days by hydroxyproline assay; assay type: functional, organism-based
Lysyl oxidase homolog 2 = molecular target: T1, Lysyl oxidase homolog 2 (Homo sapiens, UniProt Q9Y4K0); assay: Inhibition of human LOXL2 expressed in CHO cells assessed as reduction in amine oxidase activity incubated for 2 hrs by Amplex red based fluorescence assay; assay type: cell-based
T1 sequence (Q9Y4K0 whole entry): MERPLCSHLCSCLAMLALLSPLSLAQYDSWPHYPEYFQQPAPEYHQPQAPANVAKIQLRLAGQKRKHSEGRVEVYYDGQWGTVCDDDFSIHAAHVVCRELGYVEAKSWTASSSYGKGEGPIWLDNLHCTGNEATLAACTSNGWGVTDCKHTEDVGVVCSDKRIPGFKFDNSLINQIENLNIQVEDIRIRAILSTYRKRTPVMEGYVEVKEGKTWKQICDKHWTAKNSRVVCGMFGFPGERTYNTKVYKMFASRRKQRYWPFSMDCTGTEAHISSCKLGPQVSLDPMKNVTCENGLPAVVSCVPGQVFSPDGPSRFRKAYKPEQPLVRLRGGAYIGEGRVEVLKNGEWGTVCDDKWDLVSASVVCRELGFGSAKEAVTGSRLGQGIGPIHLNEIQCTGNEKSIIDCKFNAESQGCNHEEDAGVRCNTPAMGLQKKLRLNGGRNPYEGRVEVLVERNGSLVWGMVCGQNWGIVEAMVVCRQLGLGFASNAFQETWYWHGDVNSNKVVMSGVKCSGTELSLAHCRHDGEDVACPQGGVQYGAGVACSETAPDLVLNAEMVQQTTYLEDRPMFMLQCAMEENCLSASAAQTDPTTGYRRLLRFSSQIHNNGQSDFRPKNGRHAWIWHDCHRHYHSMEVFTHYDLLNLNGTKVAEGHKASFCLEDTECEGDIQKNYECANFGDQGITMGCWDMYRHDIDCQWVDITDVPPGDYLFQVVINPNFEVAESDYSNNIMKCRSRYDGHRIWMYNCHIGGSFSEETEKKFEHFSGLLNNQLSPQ

Mus musculus [6] = assay: Antifibrotic activity in C57BL/6 mouse model of bleomycin-induced lung fibrosis assessed as reduction in alpha smooth muscle actin level in lung at 60 mg/kg, po treated 7 to 14 days after bleomycin injection and measured after 14 to 28 days by immunohistochemistry analysis; assay type: functional, organism-based
Mus musculus [7] = assay: Antifibrotic activity in C57BL/6 mouse model of bleomycin-induced lung fibrosis assessed as reduction in collagen level in lung at 60 mg/kg, po treated 7 to 14 days after bleomycin injection and measured after 14 to 28 days by hydroxyproline assay; assay type: functional, organism-based
Mus musculus [8] = assay: Antifibrotic activity in C57BL/6 mouse model of bleomycin-induced lung fibrosis assessed as reduction in hydroxyproline in lung homogenates at 60 mg/kg, po treated 7 to 14 days after bleomycin injection and measured after 14 to 28 days by chloramine T and Erlich's solution based assay; assay type: functional, organism-based
Mus musculus [9] = assay: Antifibrotic activity in C57BL/6 mouse model of bleomycin-induced lung fibrosis assessed as reduction in cross linked collagen level in lung at 60 mg/kg, po treated 7 to 14 days after bleomycin injection and measured after 14 to 28 days by Masson's trichrome staining based assay; assay type: functional, organism-based
Mus musculus [10] = assay: Antifibrotic activity in C57BL/6 mouse model of bleomycin-induced lung fibrosis assessed as reduction in cross linked collagen level in lung at 60 mg/kg, po treated 7 to 14 days after bleomycin injection and measured after 14 to 28 days by Picro-Sirius staining based assay; assay type: functional, organism-based
Mus musculus [11] = assay: Antifibrotic activity in COL4A3 deficient mouse A1port model of kidney fibrosis assessed as effect on collagen-1 protein expression at 30 mg/kg, po dosed during 2 to 3 days of age and measured at 7 to 9 weeks of age by immunohistochemical analysis; assay type: functional, organism-based
Mus musculus [12] = assay: Antifibrotic activity in COL4A3 deficient mouse A1port model of kidney fibrosis assessed as effect on smooth muscle actin protein expression at 30 mg/kg, po dosed during 2 to 3 days of age and measured at 7 to 9 weeks of age by immunohistochemical analysis; assay type: functional, organism-based
Mus musculus [13] = assay: Antifibrotic activity in COL4A3 deficient mouse A1port model of kidney fibrosis assessed as effect on MMP2 gene expression at 30 mg/kg, po dosed during 2 to 3 days of age and measured at 7 to 9 weeks of age by RT-PCR analysis; assay type: functional, organism-based
Mus musculus [14] = assay: Antifibrotic activity in COL4A3 deficient mouse A1port model of kidney fibrosis assessed as effect on MMP9 gene expression at 30 mg/kg, po dosed during 2 to 3 days of age and measured at 7 to 9 weeks of age by RT-PCR analysis; assay type: functional, organism-based
Mus musculus [15] = assay: Antifibrotic activity in COL4A3 deficient mouse A1port model of kidney fibrosis assessed as effect on MCP1 gene expression at 30 mg/kg, po dosed during 2 to 3 days of age and measured at 7 to 9 weeks of age by RT-PCR analysis; assay type: functional, organism-based
Mus musculus [16] = assay: Antifibrotic activity in COL4A3 deficient mouse A1port model of kidney fibrosis assessed as effect on integrin alpha8 protein expression at 30 mg/kg, po dosed during 2 to 3 days of age and measured at 7 to 9 weeks of age by immunohistochemical analysis; assay type: functional, organism-based
Mus musculus [17] = assay: Antifibrotic activity in COL4A3 deficient mouse A1port model of kidney fibrosis assessed as effect on collagen 1 protein expression at 30 mg/kg, po dosed during 2 to 3 days of age and measured at 7 to 9 weeks of age by immunohistochemical analysis; assay type: functional, organism-based
Mus musculus [18] = assay: Antifibrotic activity in COL4A3 deficient mouse A1port model of kidney fibrosis assessed as effect on CD45 protein expression at 30 mg/kg, po dosed during 2 to 3 days of age and measured at 7 to 9 weeks of age by immunohistochemical analysis; assay type: functional, organism-based
Mus musculus [19] = assay: Antifibrotic activity in COL4A3 deficient mouse A1port model of kidney fibrosis assessed as effect on IL6 gene expression at 30 mg/kg, po dosed during 2 to 3 days of age and measured at 7 to 9 weeks of age by RT-PCR analysis; assay type: functional, organism-based
Mus musculus [20] = assay: Antifibrotic activity in COL4A3 deficient mouse A1port model of kidney fibrosis assessed as effect on MMP10 gene expression at 30 mg/kg, po dosed during 2 to 3 days of age and measured at 7 to 9 weeks of age by RT-PCR analysis; assay type: functional, organism-based
Mus musculus [21] = assay: Antifibrotic activity in COL4A3 deficient mouse A1port model of kidney fibrosis assessed as effect on CTGF gene expression at 30 mg/kg, po dosed during 2 to 3 days of age and measured at 7 to 9 weeks of age by RT-PCR analysis; assay type: functional, organism-based
Mus musculus [22] = assay: Antifibrotic activity in COL4A3 deficient mouse A1port model of kidney fibrosis assessed as effect on laminin a5 protein expression at 30 mg/kg, po dosed during 2 to 3 days of age and measured at 7 to 9 weeks of age by immunohistochemical analysis; assay type: functional, organism-based
Mus musculus [23] = assay: Antifibrotic activity in COL4A3 deficient mouse A1port model of kidney fibrosis assessed as effect on WT1 protein expression at 30 mg/kg, po dosed during 2 to 3 days of age and measured at 7 to 9 weeks of age by immunohistochemical analysis; assay type: functional, organism-based
Mus musculus [24] = assay: Antifibrotic activity in COL4A3 deficient mouse A1port model of kidney fibrosis assessed as effect on TGFbeta1 gene expression at 30 mg/kg, po dosed during 2 to 3 days of age and measured at 7 to 9 weeks of age by RT-PCR analysis; assay type: functional, organism-based
Mus musculus [25] = assay: Antifibrotic activity in COL4A3 deficient mouse A1port model of kidney fibrosis assessed as effect on albinuria level at 30 mg/kg, po dosed during 2 to 3 days of age and measured at 7 to 9 weeks of age; assay type: functional, organism-based
Mus musculus [26] = assay: Antifibrotic activity in COL4A3 deficient mouse A1port model of kidney fibrosis assessed as effect on fibronectin protein expression at 30 mg/kg, po dosed during 2 to 3 days of age and measured at 7 to 9 weeks of age by immunohistochemical analysis; assay type: functional, organism-based
Mus musculus [27] = assay: Antifibrotic activity in COL4A3 deficient mouse A1port model of kidney fibrosis assessed as effect on MMP12 gene expression at 30 mg/kg, po dosed during 2 to 3 days of age and measured at 7 to 9 weeks of age by RT-PCR analysis; assay type: functional, organism-based
Mus musculus [28] = assay: Antifibrotic activity in COL4A3 deficient mouse A1port model of kidney fibrosis assessed as effect on BUN level at 30 mg/kg, po dosed during 2 to 3 days of age and measured at 7 to 9 weeks of age; assay type: functional, organism-based

Structure (SMILES)	Activity (Mus musculus [1])	Activity (Mus musculus [2])	Activity (Mus musculus [3])	Activity (Mus musculus [4])	Activity (Mus musculus [5])	Activity (Mus musculus [6])	Activity (Mus musculus [7])	Activity (Mus musculus [8])	Activity (Mus musculus [9])	Activity (Mus musculus [10])	further results
NCc1cc(Oc2cccc3c2CCC(=O)N3)nc(C(F)(F)F)c1	Active	Active	Active	Active	Active	–	–	–	–	–	–
CC(C)(C)OC(=O)N1CCN(C(=O)Cn2ccc3c(Oc4cc(CN)cc(C(F)(F)F)n4)cccc32)CC1	–	–	–	–	–	–	–	–	–	–	IC50 (Lysyl oxidase homolog 2): < 300 nM
CS(=O)(=O)CCNC(=O)c1cccc(Oc2cc(CN)cc(C(F)(F)F)n2)c1	Active	Active	Active	Active	Active	–	–	–	–	–	–
NCc1cc(Oc2cccc(C(=O)N3C[C@H](O)[C@@H](F)C3)c2)nc(C(F)(F)F)c1 (racemic)	Active	Active	Active	Active	Active	Active	Active	Active	Active	Active	–
NCc1cc(Oc2cccc(C(=O)NCCn3cnnn3)c2)nc(C(F)(F)F)c1	Active	Active	Active	Active	Active	–	–	–	–	–	–
NCc1cc(Oc2cccc(C(=O)N3C[C@H](O)[C@@H](F)C3)c2)nc(C(F)(F)F)c1 (relative stereo)	Active	Active	Active	Active	Active	Active	Active	Active	Active	Active	–
NCc1cc(Oc2cccc(C(=O)N3C[C@@H](O)[C@H](F)C3)c2)nc(C(F)(F)F)c1	Active	Active	Active	Active	Active	Active	Active	Active	Active	Active	Activity (Mus musculus [11]): Active; Activity (Mus musculus [12]): Active; Activity (Mus musculus [13]): Active; Activity (Mus musculus [14]): Active; Activity (Mus musculus [15]): Active; Activity (Mus musculus [16]): Active; Activity (Mus musculus [17]): Active; Activity (Mus musculus [18]): Active; Activity (Mus musculus [19]): Active; Activity (Mus musculus [20]): Active; Activity (Mus musculus [21]): Active; Activity (Mus musculus [22]): Active; Activity (Mus musculus [23]): Active; Activity (Mus musculus [24]): Active; Activity (Mus musculus [25]): Active; Activity (Mus musculus [26]): Active; Activity (Mus musculus [27]): Active; Activity (Mus musculus [28]): Active
NCc1cc(Oc2cccc(C(=O)Nc3ccccc3)c2)nc(C(F)(F)F)c1	Active	Active	Active	Active	Active	–	–	–	–	–	–
NCc1cc(O[C@@H]2CCCN(C(=O)Nc3ccccc3)C2)nc(C(F)(F)F)c1	–	–	–	–	–	–	–	–	–	–	IC50 (Lysyl oxidase homolog 2): 300 to 1000 nM

From ChEMBL document CHEMBL4418283, “Fluorinated lysyl oxidase-like 2 inhibitors and uses thereof” (2017)
